According to US8906925B2, “Pyrido[4,3-B]indoles containing rigid moieties” (Medivation Technologies, Inc., priority 2008, dated 2014):
Like-named read-outs stand apart in the source and are kept apart here.

Legend:
[1] = biological target: human dopamine D2L receptor (Homo sapiens, UniProt P14416); test: Dopamine D2L radioligand binding ([3H]Spiperone); conditions: compound at 1 μM
Excerpt: Non-specific binding was estimated in the presence of […] Haloperidol. Receptor proteins were filtered and washed, the filters were then counted to determine [^3H]Spiperone specifically bound. […] Biochemical assay results are presented as the percent inhibition of specific binding in Table 9.

histamine receptor H1 = histamine receptor H1 (Homo sapiens, UniProt P35367); test: Histamine H1 radioligand binding ([3H]Pyrilamine); conditions: read-out: Histamine Binding (1 μM) H1, percent inhibition of specific binding, 1 μM
Chain of histamine receptor H1 (P35367 whole entry): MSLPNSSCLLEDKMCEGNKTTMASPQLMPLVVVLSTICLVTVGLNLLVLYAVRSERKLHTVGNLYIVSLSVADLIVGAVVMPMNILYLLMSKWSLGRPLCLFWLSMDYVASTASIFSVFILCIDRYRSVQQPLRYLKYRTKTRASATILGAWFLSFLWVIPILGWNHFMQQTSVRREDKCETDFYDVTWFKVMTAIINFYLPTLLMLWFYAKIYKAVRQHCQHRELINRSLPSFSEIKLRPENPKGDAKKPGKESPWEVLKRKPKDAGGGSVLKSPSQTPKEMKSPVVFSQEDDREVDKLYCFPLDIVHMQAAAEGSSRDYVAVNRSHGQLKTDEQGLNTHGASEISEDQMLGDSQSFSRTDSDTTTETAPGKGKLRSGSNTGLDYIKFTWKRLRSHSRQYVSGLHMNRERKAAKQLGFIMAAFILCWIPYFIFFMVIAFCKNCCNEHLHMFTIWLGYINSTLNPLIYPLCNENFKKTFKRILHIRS
Experimental: To evaluate in radioligand binding assays the activity of compounds of the invention, human recombinant histamine H1 receptor expressed in Chinese hamster ovary (CHO) cells (De Backer, M. D. et al., Biochem. Biophys. Res. Comm. 197(3):1601, 1993) in a modified Tris-HCl buffer (50 mM Tris-HCl, pH 7.4, 2 mM MgCl2, 100 mM NaCl, 250 mM Sucrose) was used. Compounds of the invention were incubated with 1.2 nM [^3H]Pyrilamine for 180 min. at 25° C. Non-specific binding was estimated in the presence of 1 μM pyrilamine. Receptor proteins were filtered and washed, the filters were then counted to determine [^3H]Pyrilamine specifically bound. Compounds were screened at 1 μM or lower, using 1% DMSO as vehicle. Biochemical assay results are presented as the percent inhibition of specific binding in Table 8.

[2] = percent inhibition of specific binding, read-out: Inhibition of ligand binding, Dopamine D2L
[3] = […] [3H]Spiperone, read-out: Inhibition of ligand binding, Dopamine D2L (percent inhibition of specific binding)

Chain of human dopamine D2L receptor (P14416 whole entry): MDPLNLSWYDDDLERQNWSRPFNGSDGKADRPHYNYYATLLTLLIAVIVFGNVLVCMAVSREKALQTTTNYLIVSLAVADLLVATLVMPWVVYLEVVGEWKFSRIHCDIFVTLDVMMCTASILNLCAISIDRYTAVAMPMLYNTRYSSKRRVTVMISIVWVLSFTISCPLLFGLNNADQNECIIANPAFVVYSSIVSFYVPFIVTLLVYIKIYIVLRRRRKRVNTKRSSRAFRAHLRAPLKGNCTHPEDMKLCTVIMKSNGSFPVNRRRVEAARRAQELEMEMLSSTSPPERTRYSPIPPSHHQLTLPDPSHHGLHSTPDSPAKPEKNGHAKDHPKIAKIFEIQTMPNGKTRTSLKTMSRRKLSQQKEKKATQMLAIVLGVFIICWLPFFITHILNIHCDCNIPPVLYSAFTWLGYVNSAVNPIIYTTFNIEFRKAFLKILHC

| Structure (SMILES) | inhibition at 1 µM [1, 2] [%] | inhibition at 1 µM (histamine receptor H1) [%] | inhibition at 1 µM [1, 3] [%] |
| --- | --- | --- | --- |
| CC/C(=C\n1c2c(c3cc(C)ccc31)CN(C)CC2)c1ccncc1 [Compound 283, (E)-2,8-dimethyl-5-(2-(pyridin-4-yl)but-1-enyl)-2,3,4,5-tetrahydro-1H-pyrido[4,3-b]indole] | 66 | 23 |  |
| CC/C(=C\n1c2c(c3cc(Cl)ccc31)CN(C)CC2)c1ccncc1 [Compound 284, (E)-8-chloro-2-methyl-5-(2-(pyridin-4-yl)but-1-enyl)-2,3,4,5-tetrahydro-1H-pyrido[4,3-b]indole] | 84 | 40 |  |
| C/C(=C\n1c2c(c3cc(C)ccc31)C(C)N(C)C(C)C2)c1ccncc1 (stereo not shown) [Compound 285, (E)-1,2,3,8-tetramethyl-5-(2-(pyridin-4-yl)prop-1-enyl)-2,3,4,5-tetrahydro-1H-pyrido[4,3-b]indole] | 53 | 21 |  |
| C/C(=C\n1c2c(c3cc(C)ccc31)CN(C)CC2)c1cnccn1 [Compound 287, (E)-2,8-dimethyl-5-(2-(pyrazin-2-yl)prop-1-enyl)-2,3,4,5-tetrahydro-1H-pyrido[4,3-b]indole] | 72 | 33 |  |
| C/C(=C\n1c2c(c3cc(C)ccc31)CN(CCCO)CC2)c1ccncc1 [Compound 288, (E)-3-(8-methyl-5-(2-(pyridin-4-yl)prop-1-enyl)-3,4-dihydro-1H-pyrido[4,3-b]indol-2(5H)-yl)propan-1-ol] | 92 | 25 |  |
| C/C(=C\n1c2c(c3cc(Cl)ccc31)CN(C)CC2)c1ccncn1 [Compound 289, (E)-8-chloro-2-methyl-5-(2-(pyrimidin-4-yl)prop-1-enyl)-2,3,4,5-tetrahydro-1H-pyrido[4,3-b]indole] | 90 | 34 |  |
| C/C(=C\n1c2c(c3cc(C)ccc31)CN(CC(F)(F)F)CC2)c1ccncc1 [Compound 291, (E)-8-methyl-5-(2-(pyridin-4-yl)prop-1-enyl)-2-(2,2,2-trifluoroethyl)-2,3,4,5-tetrahydro-1H-pyrido[4,3-b]indole] | 0 | -4 |  |
| C/C(=C\n1c2c(c3cc(C)ccc31)CN(C1CC1)CC2)c1ccncc1 [Compound 292, (E)-2-cyclopropyl-8-methyl-5-(2-(pyridin-4-v)prop-1-enyl)-2,3,4,5-tetrahydro-H-pyrido[4,3-b]indole] | 71 | 11 |  |
| C/C(=C\n1c2c(c3cc(C)ccc31)CN(C)CC2)c1cncnc1 [Compound 293, (E)-2,8-dimethyl-5-(2-(pyrimidin-5-yl)prop-1-enyl)-2,3,4,5-tetrahydro-1H-pyrido[4,3-b]indole] | 31 | 9 |  |
| C/C(=C\n1c2c(c3cc(C)ccc31)CN(C)CC2)c1cccs1 [Compound 294, (E)-2,8-dimethyl-5-(2-(thiophen-2-yl)prop-1-enyl)-2,3,4,5-tetrahydro-1H-pyrido[4,3-b]indole] | 83 | 83 |  |
| C/C(=C\n1c2c(c3cc(C)ccc31)CN(C)CC2)C1CCCCC1 [Compound 320, (E)-5-(2-cyclohexylprop-1-enyl)-2,8-dimethyl-2,3,4,5-tetrahydro-1H-pyrido[4,3-b]indole] | 61 | 65 |  |
| C/C(=C\n1c2c(c3cc(C)ccc31)CN(CCO)CC2)c1ccncc1 [Compound 332, (E)-2-(8-methyl-5-(2-(pyridin-4-yl)prop-1-enyl)-3,4-dihydro-1H-pyrido[4,3-b]indol-2(5H)-yl)ethanol] | 79 | 23 |  |
| C/C(=C\n1c2c(c3cc(Cl)ccc31)CN(C)CC2)c1cnccn1 [Compound 333, (E)-8-chloro-2-methyl-5-(2-(pyrazin-2-yl)prop-1-enyl)-2,3,4,5-tetrahydro-1H-pyrido[4,3-b]indole] | 51 | 29 |  |
| C/C(=C\n1c2c(c3ccc(C(C)C)cc31)CN(C)CC2)c1ccncc1 [Compound 334, (E)-7-isopropyl-2-methyl-5-(2-(pyridin-4-yl)prop-1-enyl)-2,3,4,5-tetrahydro-1H-pyrido[4,3-b]indole] | 90 | 18 |  |
| C/C(=C\n1c2c(c3cc(Cl)ccc31)CN(C)CC2)c1cccs1 [Compound 338, (E)-8-chloro-2-methyl-5-(2-(thiophen-2-yl)prop-1-enyl)-2,3,4,5-tetrahydro-1H-pyrido[4,3-b]indole] | 97 | 83 |  |
| Cc1ccc2c(c1)c1c(n2CC(C)(O)c2ccncc2)CCN(CC(F)(F)F)C1 (stereo not shown) [Compound 341, 1-(8-methyl-2-(2,2,2-trifluoroethyl)-3,4-dihydro-1H-pyrido[4,3-b]indol-5(2H)-yl)-2-(pyridin-4-yl)propan-2-ol] | 2 | 11 |  |

| Structure (SMILES) | inhibition at 1 µM [1, 2] [%] | inhibition at 1 µM (histamine receptor H1) [%] | inhibition at 1 µM [1, 3] [%] |
| --- | --- | --- | --- |
| Cc1ccc2c(c1)c1c(n2CC(C)(O)c2ccncc2)CCN(C2CC2)C1 (stereo not shown) [Compound 342, 1-(2-cyclopropyl-8-methyl-3,4-dihydro-1H-pyrido[4,3-b]indol-5(2H)-yl)-2-(pyridin-4-yl)propan-2-ol] | 11 | 48 |  |
| COc1cccc2c3c(n(CC(C)(O)c4ccncc4)c12)CCN(C)C3 (stereo not shown) [Compound 343, 1-(6-methoxy-2-methyl-3,4-dihydro-1H-pyrido[4,3-b]indol-5(2H)-yl)-2-(pyridin-4-yl)propan-2-ol] | 9 | 22 |  |
| CC(C)c1ccc2c3c(n(CC(C)(O)c4ccncc4)c2c1)CCN(C)C3 (stereo not shown) [Compound 344, 1-(7-isopropyl-2-methyl-3,4-dihydro-1H-pyrido[4,3-b]indol-5(2H)-yl)-2-(pyridin-4-yl)propan-2-ol] | 10 | 7 |  |
| Cc1ccc2c(c1)c1c(n2CC(C)(O)c2ccncc2)CC(C)N(C)C1 (stereo not shown) [Compound 345, 2-(pyridin-4-yl)-1-(2,3,8-trimethyl-3,4-dihydro-1H-pyrido[4,3-b]indol-5(2H)-yl)propan-2-ol] | 15 | 56 |  |
| C/C(=C\n1c2c(c3cc(Cl)ccc31)CN(C)CC2)c1cncnc1 [Compound 346, (E)-8-chloro-2-methyl-5-(2-(pyrimidin-5-yl)prop-1-enyl)-2,3,4,5-tetrahydro-1H-pyrido[4,3-b]indole] | 26 | 17 |  |
| C=C(Cn1c2c(c3cc(Cl)ccc31)CN(C)C(C)C2)c1ccncc1 (stereo not shown) [Compound 365, 8-chloro-2,3-dimethyl-5-(2-(pyridin-4-yl)allyl)-2,3,4,5-tetrahydro-1H-pyrido[4,3-b]indole] |  | 92 | 49 |
| C/C(=C\n1c2c(c3cc(Cl)ccc31)CN(C)CC2)C1CCCCC1 [Compound 367, (E)-8-chloro-5-(2-cyclohexylprop-1-enyl)-2-methyl-2,3,4,5-tetrahydro-1H-pyrido[4,3-b]indole] |  | 64 | 48 |
| C/C(=C/n1c2c(c3cc(C)ccc31)CN(C)CC2)C1CCCCC1 [Compound 368, (Z)-5-(2-cyclohexylprop-1-enyl)-2,8-dimethyl-2,3,4,5-tetrahydro-1H-pyrido[4,3-b]indole] |  | 82 | 74 |
| C/C(=C/n1c2c(c3cc(Cl)ccc31)CN(C)CC2)C1CCCCC1 [Compound 369, (Z)-8-chloro-5-(2-cyclohexylprop-1-enyl)-2-methyl-2,3,4,5-tetrahydro-1H-pyrido[4,3-b]indole] |  | 29 | 64 |
| C/C(=C\n1c2c(c3cc(Cl)ccc31)CN(C)CC2)c1nccs1 [Compound 370, (E)-2-(1-(8-chloro-2-methyl-3,4-dihydro-1H-pyrido[4,3-b]indol-5(2H)-yl)prop-1-en-2-yl)thiazole] |  | 72 | 63 |
| CN1CCc2c(c3cc(Cl)ccc3n2/C=C(/c2ccncc2)C(C)(C)C)C1 [Compound No. 286, (E)-8-chloro-5-(3,3-dimethyl-2-(pyridin-4-yl)but-1-enyl)-2-methyl-2,3,4,5-tetrahydro-1H-pyrido[4,3-b]indole] | 23 | 19 |  |
| CC(C)=C(Cn1c2c(c3cc(Cl)ccc31)CN(C)CC2)c1ccncc1 [Compound No. 357, 8-chloro-2-methyl-5-(3-methyl-2-(pyridin-4-yl)but-2-enyl)-2,3,4,5-tetrahydro-1H-pyrido[4,3-b]indole] |  | 61 | 14 |
| CC(C)=C(Cn1c2c(c3cc(C)ccc31)CN(C)CC2)c1ccncc1 [Compound No. 358, 2,8-dimethyl-5-(3-methyl-2-(pyridin-4-yl)but-2-enyl)-2,3,4,5-tetrahydro-1H-pyrido[4,3-b]indole] |  | 47 | 14 |
| C/C=C(\Cn1c2c(c3cc(Cl)ccc31)CN(C)CC2)c1ccncc1 [Compound No. 360, (Z)-8-chloro-2-methyl-5-(2-(pyridin-4-yl)but-2-enyl)-2,3,4,5-tetrahydro-1H-pyrido[4,3-b]indole] |  | 47 | 36 |
| C/C(=C\n1c2c(c3cc(C)ccc31)CN(C)CC2)c1cc(Cl)cc(Cl)c1 [compound 410, (E)-5-(2-(3,5-dichlorophenyl)prop-1-enyl)-2,8-dimethyl-2,3,4,5-tetrahydro-1H-pyrido[4,3-b]indole] |  |  | 47 |
